Data published in PubChem BioAssay AID1963873 (Molecular Pharmacology Branch, DTP, NCI, 2024).

Tested on: 276233-004-R-J1-PDC KRAS spheroids with HUVEC/MSC, viability
Assay: Anticancer human tumor 276233-004-R-J1-PDC patient-derived colon adenocarcinoma cell line growth inhibition [KRAS2]
Settings: for IC50: curve of first compound; for viability, T/C: stronger effect = lower value
Summary of the method: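 Combination screen of spheroid viability in tumor-cell co-cultures with endothelial (HUVEC) and mesenchymal stem cell stroma. Each agent was tested in half-log dilutions, topping at clinical Cmax or at 10 microM without a known Cmax.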

[1] = second compound 0.1 µM, first compound 0.0316 µM
[2] = second compound 0.316 µM, first compound 0.0316 µM
[3] = second compound 1 µM, first compound 0.0316 µM
[4] = second compound 3.16 µM, first compound 0.0316 µM
[5] = second compound 10 µM, first compound 0.0316 µM
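Note: cells exposed to agents for seven days before viability read.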
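Throughout, for viability, T/C: 100% = DMSO vehicle control wells and lower values mean fewer viable cells.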

Work on `CC(=O)Nc1cccc(-n2c(=O)n(C3CC3)c(=O)c3c(Nc4ccc(I)cc4F)n(C)c(=O)c(C)c32)c1` + C=CC(=O)N1CCN(c2nc(=O)n(-c3c(C)ccnc3C(C)C)c3nc(-c4c(O)cccc4F)c(F)cc23)C(C)C1 yielded an IC50 (second compound 0.1 µM) of 6.44 nM, an IC50 (second compound 0.316 µM) of 9.46 nM and an IC50 (second compound 1 µM) of 9.28 nM. The IC50 (second compound 3.16 µM) was 6.41 nM, the IC50 (second compound 10 µM) was 2.45 nM and the viability, T/C (second compound 0.1 µM, first compound 0.0001 µM) was 89.9%. The viability, T/C (second compound 0.1 µM, first compound 0.000316 µM) was 97.5%, the viability, T/C (second compound 0.1 µM, first compound 0.001 µM) was 85.7% and the viability, T/C (second compound 0.1 µM, first compound 0.00316 µM) was 58.9%. The viability, T/C (second compound 0.1 µM, first compound 0.01 µM) was 45.4%, the viability, T/C [1] was 21.3% and the viability, T/C (second compound 0.316 µM, first compound 0.0001 µM) was 87.1%. For the same molecule, the viability, T/C (second compound 0.316 µM, first compound 0.000316 µM) was 84.9%, the viability, T/C (second compound 0.316 µM, first compound 0.001 µM) was 76.9% and the viability, T/C (second compound 0.316 µM, first compound 0.00316 µM) was 74%. The viability, T/C (second compound 0.316 µM, first compound 0.01 µM) was 47.9%, the viability, T/C [2] was 18.6% and the viability, T/C (second compound 1 µM, first compound 0.0001 µM) was 102%. It also gave a viability, T/C (second compound 1 µM, first compound 0.000316 µM) of 85.5%, a viability, T/C (second compound 1 µM, first compound 0.001 µM) of 80% and a viability, T/C (second compound 1 µM, first compound 0.00316 µM) of 71.9%. For the same molecule, the viability, T/C (second compound 1 µM, first compound 0.01 µM) was 49.5%, the viability, T/C [3] was 19.4% and the viability, T/C (second compound 3.16 µM, first compound 0.0001 µM) was 75.2%. The viability, T/C (second compound 3.16 µM, first compound 0.000316 µM) was 96.3%, the viability, T/C (second compound 3.16 µM, first compound 0.001 µM) was 65.8% and the viability, T/C (second compound 3.16 µM, first compound 0.00316 µM) was 59.5%. For the same molecule, the viability, T/C (second compound 3.16 µM, first compound 0.01 µM) was 45.9%, the viability, T/C [4] was 24.2% and the viability, T/C (second compound 10 µM, first compound 0.0001 µM) was 74.2%. The viability, T/C (second compound 10 µM, first compound 0.000316 µM) was 73%, the viability, T/C (second compound 10 µM, first compound 0.001 µM) was 57.6% and the viability, T/C (second compound 10 µM, first compound 0.00316 µM) was 45.4%. It also gave a viability, T/C (second compound 10 µM, first compound 0.01 µM) of 36.8% and a viability, T/C [5] of 21.3%.

In the case of `Cn1nccc1Nc1nccc(-c2cc3c(s2)C(C)(C)N(CCN2CCOCC2)C3=O)n1` + C=CC(=O)N1CCN(c2nc(=O)n(-c3c(C)ccnc3C(C)C)c3nc(-c4c(O)cccc4F)c(F)cc23)C(C)C1, the IC50 (second compound 0.1 µM) is reported as greater than 10000 nM, the IC50 (second compound 0.316 µM) is reported as greater than 10000 nM and the IC50 (second compound 1 µM) is reported as greater than 10000 nM. For the same molecule, the IC50 (second compound 3.16 µM) was greater than 10000 nM, the IC50 (second compound 10 µM) was greater than 10000 nM and the viability, T/C [1] was 106%. It also gave a viability, T/C (second compound 0.1 µM, first compound 0.1 µM) of 100%, a viability, T/C (second compound 0.1 µM, first compound 0.316 µM) of 83.1% and a viability, T/C (second compound 0.1 µM, first compound 1 µM) of 71.6%. It also gave a viability, T/C (second compound 0.1 µM, first compound 3.16 µM) of 69.9%, a viability, T/C (second compound 0.1 µM, first compound 10 µM) of 60.4% and a viability, T/C [2] of 114%. It also gave a viability, T/C (second compound 0.316 µM, first compound 0.1 µM) of 112%, a viability, T/C (second compound 0.316 µM, first compound 0.316 µM) of 101% and a viability, T/C (second compound 0.316 µM, first compound 1 µM) of 99.3%. For the same molecule, the viability, T/C (second compound 0.316 µM, first compound 3.16 µM) was 66.2%, the viability, T/C (second compound 0.316 µM, first compound 10 µM) was 66.4% and the viability, T/C [3] was 132%. For the same molecule, the viability, T/C (second compound 1 µM, first compound 0.1 µM) was 108%, the viability, T/C (second compound 1 µM, first compound 0.316 µM) was 83.1% and the viability, T/C (second compound 1 µM, first compound 1 µM) was 93.1%. For the same molecule, the viability, T/C (second compound 1 µM, first compound 3.16 µM) was 67.6%, the viability, T/C (second compound 1 µM, first compound 10 µM) was 69.2% and the viability, T/C [4] was 97.1%. For the same molecule, the viability, T/C (second compound 3.16 µM, first compound 0.1 µM) was 122%, the viability, T/C (second compound 3.16 µM, first compound 0.316 µM) was 93.1% and the viability, T/C (second compound 3.16 µM, first compound 1 µM) was 98.5%. The viability, T/C (second compound 3.16 µM, first compound 3.16 µM) was 72.2%, the viability, T/C (second compound 3.16 µM, first compound 10 µM) was 86.5% and the viability, T/C [5] was 89.5%. For the same molecule, the viability, T/C (second compound 10 µM, first compound 0.1 µM) was 85.7%, the viability, T/C (second compound 10 µM, first compound 0.316 µM) was 85.2% and the viability, T/C (second compound 10 µM, first compound 1 µM) was 72.6%. The viability, T/C (second compound 10 µM, first compound 3.16 µM) was 82.2% and the viability, T/C (second compound 10 µM, first compound 10 µM) was 105%.
